Measured values taken from ChEMBL document CHEMBL1201862, “PubChem BioAssay data set” (2004).
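Step 1: Grow cells in 96-well plates. Step 2: Expose to compound for 48 hours at 5 concentrations. Step 3: Interpolate endpoints linearly; if unreached, use highest concentration. GI50 is the concentration that inhibits growth by half.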 Calls of active or inactive are those of the source. No stated cut-off is given here; in the data, active = GI50 up to about 1.1 µM and inactive = higher.

Assays:
Test in all cases: DTP human tumour cell line panel, 48 h
786-0 = test system: 786-0
DU-145 = test system: DU-145
HCT-116 = test system: HCT-116
HOP-92 = test system: HOP-92
Hs-578T = test system: Hs-578T
K562 = test system: K562
M14 = test system: M14
MOLT-4 = test system: MOLT-4
NCI-H23 = test system: NCI-H23
NCI/ADR-RES = test system: NCI/ADR-RES
SK-MEL-28 = test system: SK-MEL-28
SK-MEL-5 = test system: SK-MEL-5
SNB-19 = test system: SNB-19
SW-620 = test system: SW-620
TK-10 = test system: TK-10
UO-31 = test system: UO-31
HCC 2998 = test system: HCC 2998
SNB-75 = test system: SNB-75
U-251 = test system: U-251
RXF 393 = test system: RXF 393

Structure (SMILES) | GI50 (786-0) | GI50 (DU-145) | GI50 (HCT-116) | GI50 (HOP-92) | GI50 (Hs-578T) | GI50 (K562) | GI50 (M14) | GI50 (MOLT-4) | GI50 (NCI-H23) | GI50 (NCI/ADR-RES) | GI50 (SK-MEL-28) | GI50 (SK-MEL-5) | GI50 (SNB-19) | GI50 (SW-620) | GI50 (TK-10) | GI50 (UO-31) | GI50 (HCC 2998) | GI50 (SNB-75) | GI50 (U-251) | GI50 (RXF 393)
O=C1c2ccccc2C(=O)N1CCc1ncc[nH]1 | > 100 µM (inactive) | > 100 µM (inactive) | > 100 µM (inactive) | > 100 µM (inactive) | > 100 µM (inactive) | > 100 µM (inactive) | > 100 µM (inactive) | > 100 µM (inactive) | > 100 µM (inactive) | > 100 µM (inactive) | > 100 µM (inactive) | > 100 µM (inactive) | > 100 µM (inactive) | > 100 µM (inactive) | > 100 µM (inactive) | > 100 µM (inactive) |  |  |  | 
CCOC(=O)C(NC(=O)c1cccc(Cl)c1)(Nc1ccc(S(=O)(=O)Nc2cc(C)nc(C)n2)cc1)C(F)(F)F (stereo not given) | > 100 µM (inactive) | > 100 µM (inactive) | > 100 µM (inactive) | 80.5 µM (inactive) | > 100 µM (inactive) |  | > 100 µM (inactive) | > 100 µM (inactive) | > 100 µM (inactive) | > 100 µM (inactive) | > 100 µM (inactive) | > 100 µM (inactive) | > 100 µM (inactive) | > 100 µM (inactive) | > 100 µM (inactive) | > 100 µM (inactive) | > 100 µM (inactive) | > 100 µM (inactive) | > 100 µM (inactive) | 
O=C(O)c1cccc(OCCO)c1 | > 100 µM (inactive) | > 100 µM (inactive) | > 100 µM (inactive) | > 100 µM (inactive) | > 100 µM (inactive) | > 100 µM (inactive) | > 100 µM (inactive) | > 100 µM (inactive) | > 100 µM (inactive) | > 100 µM (inactive) | > 100 µM (inactive) | > 100 µM (inactive) | > 100 µM (inactive) | > 100 µM (inactive) | > 100 µM (inactive) | > 100 µM (inactive) |  |  | > 100 µM (inactive) | > 100 µM (inactive)
COc1ccccc1/C=C/c1c(N)ncnc1Nc1cccc(Cl)c1 | 11.9 µM (inactive) | 36.6 µM (inactive) | 23.5 µM (inactive) | 0.243 µM (active) | 16.9 µM (inactive) | 0.376 µM (active) | 26.5 µM (inactive) | 0.311 µM (active) | 20.8 µM (inactive) |  | 16.4 µM (inactive) | 22 µM (inactive) | 20.6 µM (inactive) | 34 µM (inactive) | 14.5 µM (inactive) | 20.6 µM (inactive) | 27.4 µM (inactive) | 9.53 µM (inactive) | 15.7 µM (inactive) | 16 µM (inactive)
COc1ccc(CNc2nc(NCc3ccc(OC)cc3)nc(NC3CCCCC3)n2)cc1 | 2.81 µM (inactive) | 2.9 µM (inactive) | 3.12 µM (inactive) | 24 µM (inactive) | 1.77 µM (inactive) | 5.35 µM (inactive) | 2.15 µM (inactive) | > 100 µM (inactive) |  | 1.8 µM (inactive) | > 100 µM (inactive) | 3.56 µM (inactive) | 2.07 µM (inactive) | 3.56 µM (inactive) | 0.975 µM (active) | 4.32 µM (inactive) | 1.11 µM (active) |  | 3.03 µM (inactive) | 
OCC1c2ccccc2-n2nc(-c3ccccc3)c(O)c21 (stereo not given) | 18.2 µM (inactive) | 68.5 µM (inactive) | > 10 µM (inactive) | 16.9 µM (inactive) | 42.2 µM (inactive) | 21.4 µM (inactive) |  | 31 µM (inactive) | 54.7 µM (inactive) | 18.6 µM (inactive) | 58.1 µM (inactive) | 33.3 µM (inactive) | 37.9 µM (inactive) | 29.3 µM (inactive) | 19.9 µM (inactive) | 22.8 µM (inactive) | 16.3 µM (inactive) | 68.9 µM (inactive) | 19.4 µM (inactive) | 17.7 µM (inactive)
CC(C)(C)C(=O)O[C@H]1C=C[C@@H](O)[C@@H]2[C@H]1[C@@H]1C=C[C@H]2C1 | 48.5 µM (inactive) | 47.6 µM (inactive) | 29.6 µM (inactive) | 22.2 µM (inactive) | > 100 µM (inactive) | 31.9 µM (inactive) | 13.7 µM (inactive) | 13.4 µM (inactive) | 12.1 µM (inactive) | 20.2 µM (inactive) | 18.5 µM (inactive) |  | 70 µM (inactive) | 42.7 µM (inactive) | 26.4 µM (inactive) | 47.9 µM (inactive) | 14.9 µM (inactive) | 29.9 µM (inactive) | 28.8 µM (inactive) | 
NC(=O)NOCC1NC(=O)NC1=O (stereo not given) | > 100 µM (inactive) | > 100 µM (inactive) | > 100 µM (inactive) | > 100 µM (inactive) | > 100 µM (inactive) | > 100 µM (inactive) | > 100 µM (inactive) | > 100 µM (inactive) | > 100 µM (inactive) | > 100 µM (inactive) | > 100 µM (inactive) | > 100 µM (inactive) | > 100 µM (inactive) | > 100 µM (inactive) | > 100 µM (inactive) | > 100 µM (inactive) |  | > 100 µM (inactive) | > 100 µM (inactive) | > 100 µM (inactive)
CCOP(=O)(OCC)C(C)(C)N(C)/C(F)=N/C(F)(F)F | > 100 µM (inactive) | > 100 µM (inactive) | > 100 µM (inactive) | > 100 µM (inactive) | > 100 µM (inactive) | > 100 µM (inactive) | > 100 µM (inactive) | > 100 µM (inactive) | > 100 µM (inactive) | > 100 µM (inactive) | > 100 µM (inactive) | > 100 µM (inactive) |  | > 100 µM (inactive) | > 100 µM (inactive) | > 100 µM (inactive) | > 100 µM (inactive) | > 100 µM (inactive) | > 100 µM (inactive) | 
CN(C)c1cccc(-c2cc(=S)c3cc4c(cc3[nH]2)OCO4)c1 | 6.07 µM (inactive) | 4.74 µM (inactive) | 5.74 µM (inactive) | > 100 µM (inactive) | 4.28 µM (inactive) |  | 5.28 µM (inactive) | 15.8 µM (inactive) | 5.62 µM (inactive) | 3.94 µM (inactive) | > 100 µM (inactive) | 3.4 µM (inactive) | 4.7 µM (inactive) | 5.15 µM (inactive) | > 77.4 µM (inactive) | 18.4 µM (inactive) | 7.89 µM (inactive) |  | > 20.7 µM (inactive) | 4.83 µM (inactive)
Clc1ccccc1/C=c1\nc(-c2ccccc2)n2c1nc1ccccc12 | 41.2 µM (inactive) | > 100 µM (inactive) | 35.4 µM (inactive) | 40.7 µM (inactive) | 25.8 µM (inactive) | > 100 µM (inactive) | > 100 µM (inactive) | > 100 µM (inactive) | 17.8 µM (inactive) | 40.9 µM (inactive) | > 100 µM (inactive) | > 100 µM (inactive) | 40.3 µM (inactive) | > 100 µM (inactive) | 31.4 µM (inactive) | > 100 µM (inactive) |  |  | 21.7 µM (inactive) | 18.2 µM (inactive)
O=c1cc(-c2ccc(O)cc2)n(C2CC2)c2ccccc12 | 4.06 µM (inactive) | 3.64 µM (inactive) | 2.75 µM (inactive) | 3.52 µM (inactive) | 5.41 µM (inactive) | 7.87 µM (inactive) | 6.89 µM (inactive) | 50.9 µM (inactive) | 8.73 µM (inactive) | 11.9 µM (inactive) |  | 6.4 µM (inactive) | 5.08 µM (inactive) | 5.05 µM (inactive) |  | 4.02 µM (inactive) |  |  | 5.31 µM (inactive) | 2.82 µM (inactive)
CN(C)c1ccc(C(Cc2ccccc2)C2NC(=S)NC2=O)cc1 (stereo not given) | > 100 µM (inactive) | > 100 µM (inactive) | > 100 µM (inactive) | > 100 µM (inactive) | 91.8 µM (inactive) | 31.1 µM (inactive) | > 100 µM (inactive) | 61.1 µM (inactive) | > 100 µM (inactive) | > 100 µM (inactive) | > 100 µM (inactive) | > 100 µM (inactive) | > 100 µM (inactive) | > 100 µM (inactive) | > 100 µM (inactive) | > 100 µM (inactive) |  | > 100 µM (inactive) | > 94 µM (inactive) | > 100 µM (inactive)
COC(=O)[C@@H](O)[C@]1(C(=O)OC)C2O[C@@H](OC)[C@@H]1CCCCCC[C@H]2O | > 100 µM (inactive) |  | > 100 µM (inactive) |  | > 100 µM (inactive) | > 100 µM (inactive) | > 100 µM (inactive) | > 100 µM (inactive) | > 100 µM (inactive) | > 100 µM (inactive) | > 100 µM (inactive) | > 100 µM (inactive) | > 100 µM (inactive) | > 100 µM (inactive) | > 100 µM (inactive) | > 100 µM (inactive) | > 100 µM (inactive) | > 100 µM (inactive) | > 100 µM (inactive) | > 100 µM (inactive)
O=c1c2cc([N+](=O)[O-])ccc2n2n1Cc1ccccc1C2 | > 100 µM (inactive) | > 100 µM (inactive) | > 100 µM (inactive) | > 100 µM (inactive) | 43.4 µM (inactive) | > 100 µM (inactive) |  | 35.8 µM (inactive) | > 100 µM (inactive) | 73.6 µM (inactive) | > 100 µM (inactive) | 84.3 µM (inactive) | > 100 µM (inactive) | > 100 µM (inactive) | > 100 µM (inactive) | 53.3 µM (inactive) | > 100 µM (inactive) | > 100 µM (inactive) | > 100 µM (inactive) | > 100 µM (inactive)
